Drawing on patent publication US9938276B2, “6,5-bicyclic octahydropyrrolopyridine orexin receptor antagonists” (Merck Sharp & Dohme Corp., priority 2014, dated 2018), this text covers IC50 for eight molecules.

Test [1] deals with human orexin-2 receptor (Homo sapiens (Human), UniProt O43614). The test can be described thus: hOX2R FLIPR Ca2+ flux assay. It counts as cell-based. Particulars: CHO cells expressing the receptor; agonist 70 pM Ala-6,12 human orexin-A. The method, boiled down:
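CHO cells stably expressing rat OX1R or human OX2R were loaded with 1 μM Fluo-4AM for 60 min at 37 °C, then preincubated with compound for 5 min before challenge with 70 pM Ala-6,12 human orexin-A. FLIPR peak fluorescence was compared with agonist-only wells.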

Test [2] has as its target hOX1R (Homo sapiens, UniProt O43613). The test can be described thus: hOX1R FLIPR Ca2+ flux assay. It is filed as cell-based. Particulars: CHO cells expressing the receptor; agonist 70 pM Ala-6,12 human orexin-A. For orientation: A change in cytosolic calcium serves as a functional read-out for many receptors and channels.

Structures are written as SMILES.

Chain of human orexin-2 receptor (O43614 whole entry): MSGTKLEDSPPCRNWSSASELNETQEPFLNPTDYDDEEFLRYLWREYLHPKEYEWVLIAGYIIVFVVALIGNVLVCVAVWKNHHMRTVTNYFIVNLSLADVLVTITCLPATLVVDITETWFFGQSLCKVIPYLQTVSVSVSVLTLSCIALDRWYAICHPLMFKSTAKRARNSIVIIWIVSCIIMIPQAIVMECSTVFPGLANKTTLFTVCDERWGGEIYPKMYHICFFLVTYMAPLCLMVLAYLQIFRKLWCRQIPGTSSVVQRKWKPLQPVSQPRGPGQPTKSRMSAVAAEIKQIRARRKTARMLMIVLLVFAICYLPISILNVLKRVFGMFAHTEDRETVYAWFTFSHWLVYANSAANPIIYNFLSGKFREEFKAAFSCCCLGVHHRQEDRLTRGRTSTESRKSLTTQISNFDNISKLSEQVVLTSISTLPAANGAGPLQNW

`N#Cc1ccnc(N2CC[C@@H]3CCN(C(=O)c4ccccc4OC(F)F)C[C@@H]32)c1` [Example E21, 2-[(3aR, 7aR)-6-{[2-(difluoromethoxy)phenyl]carbonyl}octa-hydro-1H-pyrrolo[2,3-c]pyridin-1-yl]pyridine-4-carbonitrile]: the IC50 in test [1] amounted to 1520 nM; in test [2] it was 10000 nM.

As to `N#Cc1ccnc(N2CC[C@@H]3CCN(C(=O)c4ccccc4C4CC4(F)F)C[C@@H]32)c1` (stereo partly drawn) [Example E22, 2-[(3aR, 7aR)-6-{[2-(2,2-difluorocyclopropyl)phenyl]carbonyl}octa-hydro-1H-pyrrolo[2,3-c]pyridin-1-yl]pyridine-4-carbonitrile], the 50% inhibitory concentration (IC50) in test [1] came to 43.8 nM; in test [2], 10000 nM.

In the case of `N#Cc1ccnc(N2CC[C@@H]3CCN(C(=O)c4ccccc4-c4ncccn4)C[C@@H]32)c1` [Example E23, 2-{(3aR, 7aR)-6-[(2-pyrimidin-2-ylphenyl)carbonyl]octahydro-1H-pyrrolo[2,3-c]pyridin-1-yl}pyridine-4-carbonitrile], the IC50 in test [1] was 99.5 nM; in test [2], not below 10000 nM.

On to `NC(=O)c1ccnc(N2CC[C@@H]3CCN(C(=O)c4ccccc4-n4nccn4)C[C@@H]32)c1` [Example F1, 2-((3aR,7aR)-6-(2-(2H-1,2,3-triazol-2-yl)benzoyl)octahydro-1H-pyrrolo[2,3-c]pyridin-1-yl)isonicotinamide], for which the IC50 in test [1] is 562 nM; in test [2], not below 10000 nM.

Take `N#Cc1ccnc(N2CC[C@@H]3C[C@@H](CO)N(C(=O)c4ccccc4-n4nccn4)C[C@@H]32)c1` [Example G1, 2-((3aR,5S,7aR)-6-(2-(2H-1,2,3-triazol-2-yl)benzoyl)-5-(hydroxymethyl)octahydro-1H-pyrrolo[2,3-c]pyridin-1-yl)isonicotinonitrile]: the figures for the half-inhibitory concentration (IC50) in test [1] and in test [2] were 8.2 nM and 2750 nM, respectively.

For `CCOC(=O)[C@@H]1C[C@H]2CCN(c3cc(C#N)ccn3)[C@H]2CN1C(=O)c1ccccc1-n1nccn1` [Example G2, (3aR,5S,7aR)-ethyl 6-(2-(2H-1,2,3-triazol-2-yl)benzoyl)-1-(4-cyanopyridin-2-yl)octahydro-1H-pyrrolo[2,3-c]pyridine-5-carboxylate], the IC50 was 198 nM in test [1] and not below 10000 nM in test [2].

`N#Cc1ccnc(N2CC[C@@H]3C[C@@H](CO)N(C(=O)c4ccccc4-n4nccn4)C[C@@H]32)c1` [Example G4]: the IC50 in test [1] came out at 2080 nM; in test [2], 10000 nM.

In the case of `C[C@H]1C[C@H]2CCN(c3cc(C#N)ccn3)[C@H]2CN1C(=O)c1ccccc1-n1nccn1` [Example H1, 2-(6-(2-(2H-1,2,3-triazol-2-yl)benzoyl)-5-methloctahydro-1H-pyrrolo[2,3-c]pyridin-1-yl)isonicotinonitrile], the values for the IC50 in test [1] and in test [2] were 18.4 nM and 2370 nM, respectively.

Broadly, the IC50 is the point on the concentration scale where inhibition reaches its midpoint. Read a low IC50 as greater potency in that assay.
